Data reported in publication PMC4326489, “Efficacy and pharmacokinetic evaluation of a novel anti-malarial compound (NP046) in a mouse model” (Malaria Journal, 2015).
In brackets after ≈: the same amount, converted by molar mass.

Columns and labels:
[1] = Kinetic solubility (HPLC-UV); type: physicochemical; conditions: aqueous buffer, kinetic from dmso stock, PBS pH 2.0
Method: The concentration of the test compound (x) in PBS samples was calculated from the peak area (y) in its UV chromatogram by extrapolation from the three-point calibration line, using the equation y = ax + b; where a = slope and b = intercept.
Summary of the assay method for the determination kinetic solubility:
PBS was prepared and its pH adjusted to 2.0 and 7.4
primary stock solutions of the test compounds and controls (reserpine and hydrocortisone) in DMSO at 10 mM were prepared
Samples were briefly vortex mixed
samples were incubated for 2 hours while mixing in an incubator with orbital shaker at 200 rpm
samples were centrifuged at 3500 rpm for 15 minutes at 22 °C
the supernatant of the standards were transferred from the clear 96-well plate into an opaque, round bottom 96-well analysis plate, while the aqueous samples were filtered using a vacuum manifold through a multi-screen filter plate (MSRLN 0450, 0.4 µM), into the same opaque, round bottom 96-well plate
samples were analysed using HPLC-UV method by injecting the STDs in duplicate, and the samples in singlet.

[2] = Metabolic stability in mouse liver microsomes; type: in vitro ADME; conditions: 0-60 minutes, read-out: in vitro intrinsic clearance
Method: Metabolism is an enzymatic process in which a drug is chemically modified into polar metabolites that can be more readily excreted from the body. Metabolism occurs mainly in the liver, and the intestine. The metabolic stability of NP046 was determined in human and mouse liver microsomes using a multiple-time-point method at 0, 5, 10, 30, and 60 minutes [for the methodology see Additional file 5].
Summary of the assay method for the determination of microsomal stability:
The assay method was adopted from Obach, 1999, Giuliano et al., 2005, and Naritomi et al., 2001, with a slight modification.
The liver microsome (human and mouse) was thawed at 37 °C, and diluted to 0.4 mg/ml in a preheated (at 37 °C) 0.1 M phosphate buffer.
The primary stock solutions (10 mM) of the controls and test compounds were diluted as follows: first in DMSO to obtain 400 µM solutions followed by dilution in phosphate buffer to 40 µM, and were vortex mixed well by vortexing at each step of dilution.
A reaction premix (in triplicate for each control and test compound) were prepared by mixing 15 µl of the 40 µM solution with 530 µl of 0.4 mg/ml microsome mixture in a premix plate, and mixed carefully using a plate shaker. […]
The intrinsic clearance (ml/min/kg) was calculated using the equation (Obach et al., 1997): […]

Caco-2 cell line = test: Caco-2 permeability, apical to basolateral drug transport assay; type: in vitro ADME, human; conditions: transport buffer pH 7.4, LC-MS/MS, experiment repeated with same result
Source text: Permeability is the speed/velocity and extent to which a drug passes through a biological membrane obstacle in a living system, such as the gastrointestinal (GI) epithelial cells, the blood capillary wall, the target cell membrane. The Caco-2 cell line (a continuous line of heterogeneous human epithelial colorectal adenocarcinoma cells), the most widely used and recognized as a model of the intestinal barrier was used to determine the in vitro permeability of NP046 [for the methodology see Additional file 6]. The transport of each drug from the apical side to the basolateral side was done using a transport buffer that consisted of Hank’s Balanced Salt Solution (HBSS) + 10 mM HEPES + […] NaHCO3, pH 7.4 (1:100 1 M HEPES in HBSS). The drug transport assay was performed by determining the concentrations of the test compound from the basolateral chamber, using an LC-MS/MS assay. […] Therefore, the experiment was repeated and the same result was obtained. This could be due to the following reasons: IVc. Drug transport assay: The monolayer was rinsed with HBSS Test compounds (200 µl) was added into the apical chambers of the monolayers inserted in a plate containing 600 µl HBSS The plate was placed in a water bath with orbital shaker (60 rpm) for 2 hours at 37 °C Fifty micro litters of the solution were removed from the apical and basolateral wells and analysed using LC-MS method.

[3] = Analyte stock solution stability; type: physicochemical; conditions: 100 days; for Analyte stock solution stability, % Reference: vs fresh
Method: NP046 was stable for 100 days in stock solutions of methanol and acetonitrile when stored at room temperature and -20 °C. It was stable in whole blood on bench for 3.3 hours while waiting for extraction, and was stable after three freeze-thaw cycles too.

[4] = Stability in whole blood (long term, freeze and thaw, on bench); type: in vitro ADME, human; conditions: for Long term stability, mean concentration found: -80°C, 92 days; for On bench stability, mean concentration found: on bench 3.3 hours
Method: Owing to the scarcity of mouse blood, the assay was developed and validated using human whole blood and then cross validated with mice whole blood to ensure that the same results were obtained in the same matrix of both species. NP046 was stable for 100 days in stock solutions of methanol and acetonitrile when stored at room temperature and -20 °C. It was stable in whole blood on bench for 3.3 hours while waiting for extraction, and was stable after three freeze-thaw cycles too.

[5] = whole blood, nominal High (799.9)
[6] = whole blood, nominal Low (4.999)

In the case of `Oc1cc(CCCc2ccc(F)cc2)ccc1CN1CCCCC1` [NP046, 5-(3-(4-fluorophenyl)propyl)-2-(piperidin-1-ylmethyl)phenol], the solubility at 2 h [1] is reported as 185 µM (≈ 60.7 µg/mL), the microsomal CLint at 0.99 µM [2] is reported as 657 µL/min/mg and the “test compound found in the basolateral chamber (apical to basolateral transport)” value (Caco-2 cell line) is reported as “no quantifiable amount”. The “Analyte stock solution stability, % Reference” value ([3]; in acetonitrile, room temperature) was 102.1%, the “Analyte stock solution stability, % Reference” value ([3]; in acetonitrile, ~ 5°C) was 83.1% and the “Analyte stock solution stability, % Reference” value ([3]; in acetonitrile, ~ -20°C) was 99.9%. For the same compound, the “Analyte stock solution stability, % Reference” value ([3]; in methanol, room temperature) was 93.7%, the “Analyte stock solution stability, % Reference” value ([3]; in methanol, ~ 5°C) was 87.8% and the “Analyte stock solution stability, % Reference” value ([3]; in methanol, ~ -20°C) was 94.3%. For the same compound, the “stability in stock solutions” value ([3]; methanol and acetonitrile, room temperature and -20°C) was “stable”, the “stability in whole blood on bench” value ([4]; 3.3 hours while waiting for extraction) was “stable” and the “long term matrix stability” value ([4]; whole blood at -80°C for 92 days) was “stable”. For the same compound, the “Long term stability, mean concentration found” value [4, 5] was 732. ng/ml, the “Long term stability, mean concentration found” value [4, 6] was 5.081 ng/mL and the “On bench stability, mean concentration found” value [4, 5] was 716.9 ng/mL. The “On bench stability, mean concentration found” value [4, 6] was 5.370 ng/mL, the “stability after freeze-thaw cycles” value ([4]; whole blood, three freeze-thaw cycles) was “stable” and the “Freeze and thaw stability, mean concentration found” value ([4]; whole blood, three freeze-thaw cycles, nominal High (799.9)) was 718.6 ng/mL. The “Freeze and thaw stability, mean concentration found” value ([4]; whole blood, three freeze-thaw cycles, nominal Low (4.999)) was 5.037 ng/mL.
